Values joined by “and” are separate entries in the source; they are usually repeats but may differ in a detail not shown here. Identical values can stand only once. Like-named read-outs stand apart in the source and are kept apart here. Marks after values point to notes of the source that are not given here.
Tests used:
[1] = Bioconcentration (BCF) experiment based on OECD 305, aqueous exposure to surfactant mixtures; assay type: in vivo, Oncorhynchus mykiss; details: pH 7.6 (MIX1, MIX2); whole fish; read-out: measured total elimination rate constant (kT) (converted)
Description: (§1) Juvenile rainbow trout were purchased from EM lax in Västervik, Sweden, and held in the aquaria facility for one month prior to starting the experiment on August 28, 2018. Ethical approval for the experiments was obtained from Stockholm’s djurförsöksetiska nämnd (decision 9967–2017). The experiment was conducted in six 350 L fiberglass aquaria with a water renewal rate of 1.5 L min^–1 corresponding to a turnover time of […]. The water temperature and the air temperature in the aquaria room were 10 °C. The lighting was dim and programmed on a 12 h light/12 h dark cycle.
(§2) Three BCF experiments were conducted, one each for MIX1 and MIX2 at pH ∼7.6 (denoted MIX1 and MIX2 in the following), and one for MIX1 at pH ∼6.2 (MIX1pH). Each experiment consisted of a 14 d exposure phase and a 28 d depuration phase. There were also two control aquaria where unexposed fish were kept, one at pH 7.6 and one at pH 6.2. For the pH 6.2 aquaria, a 20% v:v formic acid solution was pumped into a premixing basin where it was mixed with the inflowing water before entering the aquarium. pH sensors monitored pH in the premixing basin and the aquarium. The pH for the MIX1 and MIX2 experiments was governed by the pH of the water supply. Water samples were collected at 8 time points during each experiment for the determination of pH and alkalinity. Water samples were collected daily during the exposure phase for determination of total organic carbon (TOC), which was measured with NDIR detection after acidification, purging and high-temperature catalytic combustion (Shimadzu TOC-L).
(§3) For the exposure phase, a methanol solution of the test chemical mixture was infused continuously at 4.0 μL min^–1 into the water inflow of the aquarium using a syringe pump. The target concentrations of the chemicals in water ranged from 2.5 to 100 μg L^–1 (Table 1). They were selected to be as low as possible to minimize the risk of toxic effects while still being high enough to enable collection of high-quality data, building on the results of the tissue distribution experiment.[32] The syringe pump was started in an aquarium containing no fish. After 16 h to allow the concentrations to stabilize, ∼80 rainbow trout were transferred to the aquarium. Over the following 14 d water samples were collected and fish were sacrificed according to the schedule in Table S5. The remaining fish were then transferred to a second aquarium that received water without chemical addition. Over the following 28 d further water samples were collected and fish were sacrificed (Table S5).
(§4) At each fish sampling, 4–6 fish were sacrificed. Fish were also sampled periodically from the control aquaria. Following stunning and severance of the spinal cord, the fish were placed in a polyethylene bag, weighed, and immediately frozen at −20 °C. The median fish weight at sacrifice was 10.94 g, with a 25th and 75th percentile of 8.43 and 13.58 g, respectively.
(§5) Three fish from each time point were prioritized for analysis based on proximity to the median fish weight. Each fish was semithawed, cut into 3–4 pieces, and homogenized with an Ultra-Turrax device. 150 mg of the homogenate was transferred to a preweighed 13 mL polypropylene tube, centrifuged to a pellet, and weighed. 50 μL of methanol was added and the prepared aliquot was frozen. For extraction internal standard solution (isotope labeled standards of Q10 (D21), Q14 (D29), and P16 (D33)), 3 mL of methanol and 3 steel balls (3.2 mm diameter) were added to the prepared aliquot. This mixture was mixed in a bullet blender for 1 min, and then placed in an ultrasound bath at 50 °C for 60 min. Following centrifugation, the supernatant was decanted and the extraction was repeated. The extracts were combined and a portion corresponding to 25–50 mg homogenate was cleaned up on a weak cationic exchange SPE column (WCX, 60 mg) as described elsewhere.[32] […]

[2] = tested on: juvenile rainbow trout (Oncorhynchus mykiss); assay: as above; assay type: in vivo; details: for uptake rate constant (kU): 14 d exposure, 28 d depuration; for uptake rate constant (kU) / BCF (kU/kT) / measured total elimination rate constant (kT): whole fish; for factor by which BCF is lower for the QAC than for the tertiary amine with the same chain length: pH 7.6, Q10 vs T10, Q14 vs T14
Description: as §1, §2, §3, §4, §5

gills of rainbow trout = assay: Mechanistic one-box mass balance model of gill uptake and elimination; details: for predicted gill elimination rate constant eq 1 (k2): from measured kU and modeled αW, αB, DFW
Description: To gain more mechanistic insight into the results, we formulated a simple one-box mass balance model of chemical bioconcentration in fish that considered diffusive uptake and elimination across the gills as well as biotransformation.[33] The flow of water across the gills and the flow of blood through the gills were modeled as perfusion limited resistances that constrain gill uptake and elimination. […] Consequently, these resistances are unknowns. Ion trapping effects caused by differences in pH between water at the gill surface and blood in the gills are considered, drawing on previous work on the uptake and elimination of ionizable organic chemicals across the gills of rainbow trout.[22],[23] Partitioning of the chemical from the dissolved phase into blood and into whole fish was calculated as the product of the membrane lipid–water distribution ratio (DMLW,T, including partitioning of both the neutral and the charged forms) and the fraction of membrane lipid in blood and whole fish. A detailed description of the model is provided in the SI (Text S3).
The contribution of the water perfusion and blood perfusion resistances were compared with the overall resistance for transport across the gills from water to blood (RW→B), which was calculated from the measured kU according to equation S4.3. […] For all of the other chemicals the blood resistance is insignificant compared to the overall resistance.
The rate constant for elimination across the gills, k2, can be defined as follows: [drawing 1] 1 where αB and αW are the neutral fractions of the chemical in the blood and in the water at the gill surface, respectively, and DFW is the fish-water distribution ratio of the chemical at the pH of blood (8.1) (see Text S3). Using the measured kU and the values of αW, αB, and DFW estimated for the model, k2 was calculated (Table 2).

[3] = Membrane-water partition coefficient of the charged form (DMLW,C); assay type: physicochemical; details: extrapolated from Timmer and Droge (2017)
Description: Table S3: Test chemical properties
Abbr. pKa$ Log DOC§ Log DMLW,C# SMILES
$ pKa values derived/reported for different alkylamine type analogues. The selected value is expected to be independent of chain length for all longer chain homologues, using a weighted value obtained from the different sources with more focus on experimental data:
Algorithm / simulated data Experimental reference data (25 °C)
Chem ACD/ COSMO- selected
(https://echa.europa.eu/registration-dossier/-

[4] = parameters: method as in Perrin 1965, SRC, REACH, Perrin 1972, Hall 1957; details: ref Perrin 1965, SRC, REACH, Perrin 1972, Hall 1957, cited from earlier work; for pKa used (selected value): selected per amine type, weighted from simulated and experimental analogue data; for pKa, experimental reference data: 25 °C
[5] = ref Timmer and Droge (2017); cited from earlier work
[6] = parameters: method as in REACH dossier; details: aqueous; ref REACH dossier; cited from earlier work

CCCCCCCCCCCCCN [P13, Tridecylamine]
k el [1]: 9.44e-07 s⁻¹
uptake rate constant (kU) ([2]; pH 7.6 (MIX1, MIX2), 10 °C): 4.8 L kg^–1 h^–1
BCF (kU/kT) ([2]; pH 7.6 (MIX1, MIX2)): 1390 L kg^–1
factor by which k2 was less than kT (gills of rainbow trout): ~10
k2/kT (gills of rainbow trout; pH 7.6 (MIX1, MIX2)): 0.17
predicted gill elimination rate constant eq 1 (k2) (gills of rainbow trout; pH 7.6 (MIX1, MIX2)): 0.0006 h^–1
Log DMLW,C (membrane-water partition coefficient of the charged form) [3]: 6.16
pKa used (selected value) [4]: C13NH2 (10.6)

CCCCCCCCCC[N+](C)(C)C [Q10, N,N,N-trimethyl-1-decylammonium]
BCF (kU/kT) ([2]; pH 7.6 (MIX1, MIX2)): <0.2 ^c L kg^–1
factor by which BCF is lower for the QAC than for the tertiary amine with the same chain length [2]: > 670
Log DMLW,C (membrane-water partition coefficient of the charged form) [5]: 3.34

CCCCCCCCCCCCCC[N+](C)(C)C [Q14, N,N,N-trimethyl-1-tetradecylammonium]
initial rapid sorption as share of the cumulative uptake over 14 d ([2]; 14 d exposure phase): < 5%
factor by which BCF is lower at pH 6.2 than at pH 7.6 ([2]; MIX1 vs MIX1pH): no influence of pH on BCF
factor by which kU is lower at pH 6.2 than at pH 7.6 ([2]; MIX1 vs MIX1pH): the same
uptake rate constant (kU) ([2]; pH 6.2 (MIX1pH)): 0.121 L kg^–1 h^–1
BCF (kU/kT) ([2]; pH 6.2 (MIX1pH)): 55 L kg^–1
measured total elimination rate constant (kT) ([2]; pH 6.2 (MIX1pH)): 0.0022 h^–1
uptake rate constant (kU) ([2]; pH 7.6 (MIX1, MIX2), 10 °C): 0.104 L kg^–1 h^–1
BCF (kU/kT) ([2]; pH 7.6 (MIX1, MIX2)): 51 L kg^–1
measured total elimination rate constant (kT) ([2]; pH 7.6 (MIX1, MIX2)): 0.0020 h^–1
factor by which BCF is lower for the QAC than for the tertiary amine with the same chain length [2]: 160
Log DMLW,C (membrane-water partition coefficient of the charged form) [5]: 5.46

CCCCCCCCCCN(C)C [T10, N,N-dimethyldecylamine]
factor by which BCF is lower at pH 6.2 than at pH 7.6 ([2]; MIX1 vs MIX1pH): 17
factor by which kT is greater at pH 6.2 than at pH 7.6 ([2]; MIX1 vs MIX1pH): 1.7
factor by which kU is lower at pH 6.2 than at pH 7.6 ([2]; MIX1 vs MIX1pH): 10
uptake rate constant (kU) ([2]; pH 6.2 (MIX1pH)): 1.02 L kg^–1 h^–1
BCF (kU/kT) ([2]; pH 6.2 (MIX1pH)): 7.9 L kg^–1
measured total elimination rate constant (kT) ([2]; pH 6.2 (MIX1pH)): 0.129 h^–1
uptake rate constant (kU) ([2]; pH 7.6 (MIX1, MIX2), 10 °C): 9.9 L kg^–1 h^–1
BCF (kU/kT) ([2]; pH 7.6 (MIX1, MIX2)): 134 L kg^–1
measured total elimination rate constant (kT) ([2]; pH 7.6 (MIX1, MIX2)): 0.074 h^–1
k2/kT (gills of rainbow trout; pH 6.2 (MIX1pH)): 4.1
predicted gill elimination rate constant eq 1 (k2) (gills of rainbow trout; pH 6.2 (MIX1pH)): 0.53 h^–1
factor by which k2 exceeded kT (gills of rainbow trout; pH 6.2 experiment): 4
factor by which k2 exceeded kT (gills of rainbow trout; pH 7.6): ~5
k2/kT (gills of rainbow trout; pH 7.6 (MIX1, MIX2)): 5.0
predicted gill elimination rate constant eq 1 (k2) (gills of rainbow trout; pH 7.6 (MIX1, MIX2)): 0.37 h^–1
pKa used (selected value) [4]: C10N(CH3)2 (10.0)
Log DMLW,C (membrane-water partition coefficient of the charged form) [5]: 3.65

CCCCCCCCCCCCCC[N+](C)(C)Cc1ccccc1.[Cl-] [benzyldimethyltetradecylazanium chloride]
SURFACE TENSION [6]: 34.5 mN/m

CCCCCCCCCCCCCCCCCCN(C)C [dimethyl(octadecyl)amine]
SURFACE TENSION [6]: 32.2 mN/m

CCCCCCCCCCCCN [dodecan-1-amine]
SURFACE TENSION [6]: 23.1 mN/m

CCCCCCN [hexylamine, reference compound]
pKa, experimental reference data [4]: 10.64

CCCCCCCCCCCCCCCCCCN [octadecan-1-amine]
SURFACE TENSION [6]: 23.9 mN/m

CCCCCCCCN [octan-1-amine]
SURFACE TENSION [6]: 44.2 mN/m

CCCCCCCCN [octylamine, reference compound]
pKa, experimental reference data [4]: 10.7 and 10.6

— PMC8277129, “Bioconcentration of Several Series of Cationic Surfactants in Rainbow Trout” (Environmental Science & Technology, 2021)
